Laboratory results: patent publication US20260199365A1, “BIS-SULFONAMIDE SHIP1 ACTIVATORS” (The Research Foundation for the State University of New York, priority 2022, published 2026)
“Also recorded” adds a separate entry of the source.

Biological target: T1, recombinant human truncated SHIP1 (tSHIP1) (Homo sapiens, UniProt Q92835)
T1 construct: tSHIP1 (SHIP1, residues 397-864) was amplified from pET24TEV-tSHIP1; His tag; made in house; host or cells: E. coli BL21
T1 sequence (Q92835 397-864): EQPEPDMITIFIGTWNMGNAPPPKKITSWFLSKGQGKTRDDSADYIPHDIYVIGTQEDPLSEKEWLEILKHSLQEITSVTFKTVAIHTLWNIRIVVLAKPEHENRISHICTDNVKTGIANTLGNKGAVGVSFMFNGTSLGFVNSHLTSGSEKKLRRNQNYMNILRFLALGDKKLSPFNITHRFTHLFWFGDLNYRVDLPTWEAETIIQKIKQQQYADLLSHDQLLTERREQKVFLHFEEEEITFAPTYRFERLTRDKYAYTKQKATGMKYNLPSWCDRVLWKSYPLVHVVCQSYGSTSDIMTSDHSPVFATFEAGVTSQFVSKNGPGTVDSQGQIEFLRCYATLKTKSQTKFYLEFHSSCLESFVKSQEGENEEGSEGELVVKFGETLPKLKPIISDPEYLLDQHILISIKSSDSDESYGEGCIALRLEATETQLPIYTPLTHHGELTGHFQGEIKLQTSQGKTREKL
Test: Malachite Green Phosphatase Release Assay (SHIP1 phosphatase activity)
Type: biochemical
Details: for Phosphatase activity in the Malachite Green Assay, analog concentration 250 μM: 250 μM analog; for Phosphatase activity in the Malachite Green Assay, analog concentration 250 μM / Phosphatase activity in the Malachite Green Assay, analog concentration 500 μM / Phosphatase activity in the Malachite Green Assay, analog concentration 125 μM: 100 μM PI(3,4,5)P3-diC8 substrate, normalized to vehicle control (DMSO) = 100%; for Phosphatase activity in the Malachite Green Assay, analog concentration 500 μM: 500 μM analog, >100% activation, <100% inhibition; for SHIP1 activator activity in the malachite green assay: discussion of Table 4 (125-500 μM); for Phosphatase activity in the Malachite Green Assay, analog concentration 125 μM: 125 μM analog
Description: ^aPhosphatase activity for SHIP1 and SHIP2 enzyme as determined in the malachite green assay. Results were normalized to the phosphatase activity level from vehicle control (DMSO) used as 100% activity. Values >100% are attributed to activation, while values <100% show inhibition of the enzyme compared to the control. The assay was performed at the indicated concentration of the small molecule with 100 μM PI(3,4,5)P3-diC8 as the substrate. ^bnd=not determined, compound 23 was insoluble.
Cloning and expression of tSHIP1 of truncated human SHIP1 protein (tSHIP1) from human whole blood mRNA have been previously described (see Brooks R, Iyer, S., Akada, H., Neelam, S., Russo, C. M., Chisholm, J. D., and Kerr W. G. Coordinate Expansion of Murine Hematopoietic and Mesenchymal Stem Cell Compartments by SHIPi Stem Cells 2015; 33:848). Briefly, tSHIP1 (SHIP1, residues 397-864) was amplified from pET24TEV-tSHIP1. Plasmids were extracted with Midi Prep (Qiagen) and sequences were verified by sequencing of the entire expression regions. The plasmids were then transformed into E. coli BL21 (New England Biolabs). Fresh colonies were amplified in 1 L LB at 37° C., shaking at 250 rpm until OD600 nm reached 0.6. Protein expression was induced with […] IPTG and incubation was continued at 16° C., shaking at 250 rpm for 16 h. Following centrifugation, bacteria pellets were stored overnight at −20° C. Protein was extracted form bacterial cell pellet using BugBuster HT (Millipore), according to manufacturer's recommendations. The His-tagged protein was purified by FPLC using HisTrapHP 5 ml column (Cytiva Life Sciences) at a 5 ml/min flow rate and 10 mM-1M imidazole gradient in Buffer A (20 mM Tris pH 8.0, 300 mM NaCl, 10 mM imidazole, 5 mM β-mercaptoethanol). Fractions containing active protein by Malachite Green Phosphatase Release Assay (Echelon, see below) were pooled, concentrated and buffer exchanged to reduce imidazole concentration by centrifugation using Pierce Protein Concentrators 30KMWCO PES, (ThermoFisher Scientific). Protein was aliquoted and stored at −80° C. in a mixture of Buffer A (without β-ME) and 50% glycerol.
Malachite Green Phosphatase Release Assays: Malachite Green Phosphatase Release Assays (Echelon Biosciences) were performed with recombinant human truncated SHIP1 (tSHIP1) (Brooks, 2015) and SHIP2 (Echelon Biosciences). Briefly, serial dilutions of the compounds dissolved in DMSO were added to the recombinant enzymes diluted in reaction buffer Rx (50 mM Hepes pH 7.4, 150 mM NaCl, 1 mM MgCl2, 0.25 mM EDTA) in triplicate reactions in 96-well plates. Reactions were incubated for 2 min at room temperature. […] of 1 mM Phosphatidylinositol 3,4,5-trisphosphate diC8 (PI(3,4,5)P3diC8) (Echelon Biosciences) was added to each reaction to a final concentration of 100 μM in a final volume of […]. Following 20 min incubation at 37° C., 100 μL of Malachite Green Solution (Echelon Biosciences) was added to each well and plates were incubated at room temperature in the dark for 15 min. Plates were then read at 620 nm on a plate reader (Synergy 2, BioTek).

Row | Structure (SMILES) | Malachite (SHIP1), 125 μM (bis-sulfonamide hybrids, 125 μM) [%] | Malachite (SHIP1), 250 μM (bis-sulfonamide hybrids, 250 μM) [%] | Malachite (SHIP1), 500 μM (bis-sulfonamide hybrids, 500 μM) [%] | Phosphatase activity in the Malachite Green Assay, analog concentration 250 μM [%] | Phosphatase activity in the Malachite Green Assay, analog concentration 500 μM [%] | SHIP1 activator activity in the malachite green assay | Phosphatase activity in the Malachite Green Assay, analog concentration 125 μM [%] | SHIP1 activator activity in the malachite green assay (listed as 22)
1 | O=C(Nc1ccc(S(=O)(=O)N2CCCCC2)cc1)[C@@H]1CCCN1S(=O)(=O)c1ccc(C(F)(F)F)cc1 (stereo in doubt) [Compound K423] | 99 | 109 | 136 | – | – | – | – | –
2 | Cc1sc(S(=O)(=O)N2CCOCC2)cc1NC(=O)CNS(=O)(=O)c1ccc(F)cc1 [Compound K367, 2-(4-Fluorobenzenesulfonamido)-N-[2-methyl-5-(morpholine-4-sulfonyl)thiophen-3-yl]acetamide] | – | – | – | 93 | 94 | loss of activity | – | –
3 | Cc1sc(S(=O)(=O)N2CCSCC2)cc1NC(=O)CNC(=O)c1ccccc1 [Compound K371, N-[2-methyl-5-(thiomorpholine-4-sulfonyl)thiophen-3-yl]-2-(phenylformamido) acetamide] | – | – | – | 94 | 83 | loss of potency | 97 | –
4 | Cc1sc(S(=O)(=O)N2CCSCC2)cc1NC(=O)CNC(=O)OCc1ccccc1 [Compound K373, Benzyl N-({[2-methyl-5-(thiomorpholine-4-sulfonyl)thiophen-3-yl]carbamoyl}methyl) carbamate] | – | – | – | 102 | 105 | loss of potency | 93 | –
5 | Cc1sc(S(=O)(=O)N2CCSCC2)cc1NC(=O)CNS(=O)(=O)c1ccc(I)cc1 [Compound K374, 2-(4-Iodobenzenesulfonamido)-N-[2-methyl-5-(thiomorpholine-4-sulfonyl)thiophen-3-yl]acetamide] | – | – | – | 83 | 119 | loss of bioactivity | 99 | –
6 | Cc1sc(S(=O)(=O)N2CCSCC2)cc1NC(=O)CNS(=O)(=O)c1ccc([N+](=O)[O-])cc1 [Compound K375, N-[2-methyl-5-(thiomorpholine-4-sulfonyl)thiophen-3-yl]-2-(4-nitrobenzenesulfonamido) acetamide] | – | – | – | 115 | 150 | increase in the activity | 108 | –
7 | Cc1sc(S(=O)(=O)N2CCSCC2)cc1NC(=O)CNS(=O)(=O)c1ccccc1 [Compound K376, 2-Benzenesulfonamido-N-[2-methyl-5-(thiomorpholine-4-sulfonyl)thiophen-3-yl]acetamide] | – | – | – | 106 | 107 | loss of bioactivity | 104 | –
8 | Cc1sc(S(=O)(=O)N2CC[S+]([O-])CC2)cc1NC(=O)CNS(=O)(=O)c1ccc(F)cc1 [Compound K377] | – | – | – | 89 | 80 | – | 98 | no activity as a SHIP activator; also recorded: some inhibition of SHIP1
9 | Cc1sc(S(=O)(=O)N2CCSCC2)cc1NC(=O)CN [Compound K378, 2-Aminotrifluoroacetate-N-[2-methyl-5-(thiomorpholine-4-sulfonyl)thiophene-3-yl]acetamide] | – | – | – | 104 | 107 | reduced effect on SHIP activation | 103 | –
10 | Cc1sc(S(=O)(=O)N2CCSCC2)cc1N [Compound K381] | – | – | – | 107 | 113 | reduced effect on SHIP activation | 109 | –
11 | CCN(CC)S(=O)(=O)c1cc(NC(=O)CNS(=O)(=O)c2ccc(F)cc2)c(C)s1 [Compound K383, N-[5-(Diethylsulfamoyl)-2-methylthiophen-3-yl]-2-(4-fluorobenzenesulfonamido) acetamide] | – | – | – | 93 | 109 | – | 101 | –
12 | Cc1sc(S(=O)(=O)N2CCSCC2)cc1NC(=O)[C@@H](C)NS(=O)(=O)c1ccc(F)cc1 [Compound K386, (2R)-2-(4-Fluorobenzenesulfonamido)-N-[2-methyl-5-(thiomorpholine-4-sulfonyl)thiophen-3-yl]propanamide] | – | – | – | 108 | 116 | – | – | –
13 | Cc1sc(S(=O)(=O)N2CCCC2)cc1NC(=O)CNS(=O)(=O)c1ccc(F)cc1 [Compound K387, 2-(4-Fluorobenzenesulfonamido)-N-[2-methyl-5-(pyrrolidine-1-sulfonyl)thiophen-3-yl]acetamide] | – | – | – | 97 | 90 | loss of activity | 100 | –
14 | Cc1sc(S(=O)(=O)N(C)C)cc1NC(=O)CNS(=O)(=O)c1ccc(F)cc1 [Compound K388, N-[5-(Dimethylsulfamoyl)-2-methylthiophen-3-yl]-2-(4-fluorobenzenesulfonamido) acetamide] | – | – | – | 97 | 94 | – | 100 | –
15 | Cc1sc(S(=O)(=O)N2CCSCC2)cc1NC(=O)[C@H](C)NS(=O)(=O)c1ccc(F)cc1 [Compound K389, (2S)-2-(4-Fluorobenzenesulfonamido)-N-[2-methyl-5-(thiomorpholine-4-sulfonyl)thiophen-3-yl]propanamide] | – | – | – | 118 | 132 | – | 89 | –
